Assay results published in US4149007A, “C14 Phenyl-substituted derivatives of prostaglandin analogues” (Miles Laboratories, Inc., priority 1977, dated 1979).
Entries after “also recorded” stand apart in the source; their conditions may differ.

How the values were obtained:
[1] = test system: rat uterus; test: Effects on the rat uterus in vitro; type: cell-based; settings: dose producing response 50% that of carbachol
Procedure: (B) effect on the rat uterus in vitro;
The uterine stimulant effect of test compounds was determined in segments of uterus obtained from rats (140-160 g) pretreated subcutaneously with 1 mg/kg of diethylstilbesterol 18 hours before the experiment. The tissues were placed in 10 ml chambers filled with de-Jalon solution at 29° C., were aerated and bubbled with 95% O2 and 5% CO2, and were prepared for isometric recording with force displacement transducers. Preparations were stretched to an initial tension of 1 g and were left undisturbed for 30 minutes. Carbachol (1 mcg/ml) was then added to the bath and a response was recorded. After a ten minute interval the carbachol procedure was repeated. Responses to increasing concentrations of a test compound (0.001 to 10 mcg/ml with one log intervals) were then recorded every 10 minutes. Preparations were washed four times after each response. All doses of compounds were administered in a 0.1 ml volume. Because it has been observed that the magnitude of the second response to carbachol (approximately 10% greater than the first) is close to the maximal response of the tissue, such value was taken as a measure of the sensitivity of a particular segment. Responses to each concentration of the test compound were expressed in terms of percentage of the second response to carbachol and the ED50 (dose producing a response 50% that of carbachol) was calculated graphically.
Activity was scored according to the following scale: […]

[2] = test system: guinea pig trachea; test: Effects on the guinea pig trachea in vitro; type: cell-based; settings: 0.01-10.0 mcg/ml, relative to PGE1 0.1 mcg/ml
Procedure: (C) effect on the guinea pig trachea in vitro;
A male guinea pig weighing 200-500 g was killed by a blow on the head. A 20 mm length of the trachea was dissected from the animal, transferred to a petri dish containing Krebs' solution (aerated with 95% O2 and 5% CO2 at 37° C.), and cut longitudinally opposite the tracheal muscle. The tissue was then cut transversely three quarters of the distance across, a second cut in the opposite direction (again three quarters of the distance across the tissue) was made and the procedure was continued for the whole tissue. The ends of the trachea were pulled to form a zig-zig shaped strip. The tracheal strip used in the experiment was approximately 30 mm when extended under 0.25-0.5 g load in the tissue bath. Cotton thread was tied to one end of the tissue, and linen thread to the other. It was attached via the linen thread to a glass hook in a 5 ml isolated tissue bath containing Krebs' solution (37° C., aerated with a mixture of 95% O2 and 5% CO2). […]
A test compound was then added to the same two strips at bath concentrations of 0.01, 0.1, 1.0, and 10.0 mcg/ml and the effects of the compound were recorded. […] The mean of the effects of the test compound on the two strips was then calculated for each concentration, and, based on the resulting values, an activity value was assigned as follows: […]

[3] = test system: anesthetized dog; test: Effects on femoral blood flow in the anesthetized dog; type: in vivo; settings: intraarterial 0.001 to 10 mcg
Procedure: (H) effect on femoral blood flow in the anesthetized dog; and
The peripheral vasodilator or constrictor effects of test compounds were determined in mongrel dogs of either sex, weighing between 10 and 20 kg, anesthetized intravenously with 35 mg/kg of pentobarbital sodium. An external iliac artery was dissected immediately above the femoral arch for a length of approximately 5 cm, and a previously calibarated, non-cannulating electromagnetic-flowmeter sensor with a lumen between 2.5 and 3.5 mm was placed snugly around the vessel. Cannulas were placed in a branch of the artery arising distally to the location of the flowmeter sensor for intraarterial drug administrations, in the contralateral femoral artery for systemic blood pressure recording, and in the trachea for artificial respiration with room air. Femoral blood flow and systemic blood pressure were continuously recorded with an electromagnetic flowmeter and pressure transducer, respectively.
After an adequate control period, test compounds were injected intraarterially at one log-spaced doses ranging from 0.001 to 10 mcg, in a volume of 0.5 ml and at 5 to 10 minute intervals. […] The dose changing blood flow by 100 ml/min (ED100 ml/min) was calculated graphically and was used for scoring activity as follows: […]

[4] = test system: guinea pig ileum; test: Antagonism of the effects of PGE1 on the guinea pig ileum in vitro; type: cell-based; settings: listed as TR 4412
Procedure: (§1) The degree and specificity of antagonism of test compounds to the smooth muscle stimulant effects of prostaglandins were assessed in segments of terminal guinea pig ileum. Preparations were placed in tissue chambers filled with Ringer-Tyrode solution at 37° C., bubbled with a mixture of 95% O2 and 5% CO2, and arranged for isometric recording with force displacement transducers. The segments were stretched to an initial tension of 1 g, and responses to a test concentration of acetylcholine (0.1 mcg/ml) were obtained every 5 minutes until two similar responses were observed (usually after four administrations). […] Any direct contractile effect of the test compound was recorded and evaluated in terms of mean values in grams of tension developed at each concentration. Responses to the different agonists observed after incubation with the test compound were expressed as percent of control responses. All drugs were administered in a volume of 0.1 ml.
(§2) Antagonism to prostaglandins was scored independently for PGE1 and PGF2α according to the following criteria: […]

[5] = test system: hypertensive rat; test: Effects on blood pressure in the hypertensive rat; type: in vivo; set-up: key: 0: Not significant at any time interval; 1: Significant at one time interval; 2: Significant at two time intervals; settings: 1 mg/kg intraperitoneal; 2, 4, 6 and 9 hours
Procedure: (I) effect on systolic blood pressure in the hypertensive rat
The acute anithypertensive activity of test compounds was determined in rats made hypertensive by the procedure of Grollman (Proc. Soc. Exper Biol. Med., 57: 102 [1944]). Female rats weighing between 60 and 100 g were anesthetized with ether, the right kidney approached through a flank retroperitoneal incision, decapsulated and tied with a figure-of-eight-ligature. The animals were left to recover and two weeks later were again anesthetized and the contralateral kidney removed. […]
Blood pressure was measured in the tail with an inflatable occluding cuff placed at the base of the extremity and a pulse detector located distally. The cuff was inflated to approximately 300 mmHg and was slowly deflated until pulsations appeared, indicating the level of systolic pressure; diastolic pressure was not recorded by this procedure. […] In all cases, three pressure readings were obtained in succession and mean values were calculated thereof.
Experiments were carried out in groups of five hypertensive rats in which systolic pressure was determined immediately before and 2, 4, 6 and 9 hours after intraperiotoneal administration of the test compound at a dose of 1 mg/kg. Drugs were diluted from stock solutions with phosphate buffer (Lee et al., Prostaglandins, 3: 29 [1973]), so as to inject this quantity in a volume of 1 ml/kg. […]

[6] = test system: anesthetized cat; test: Effects on blood pressure and heart rate in the anesthetized cat; type: in vivo; settings: i.v. 0.01 to 10.0 mcg/kg, scored on hypotension only
Procedure: (G) effect on blood pressure and heart rate in the anesthetized cat;
The acute effects of test compounds on blood pressure and heart rate were determined in cats of either sex anesthetized with a mixture of pentobarbital sodium (35 mg/kg, i.v.) and barbital sodium (100 mg/kg, i.v.). Cannulas were placed in the trachea to allow adequate spontaneous ventilation, in a femoral artery for blood pressure recording with a strain gage transducer, and in a saphenous vein for drug administration. Heart rate was recorded by means of a cardiotachometer driven by the R wave of the electrocardiogram. After a period of 10 minutes of stable recordings of blood pressure and heart rate, the test compound was administered intravenously at doses increasing from 0.01 to 10.0 mcg/kg, spaced one log and injected at 10 minute intervals. All doses were injected in a volume of 0.1 ml/kg. Modifications of blood pressure and heart rate induced by the test compound were expressed both in absolute units (mmHg and beats/minute) and as percent of values recorded immediately before administration of each dose. […]
Activity of compounds in this test was judged only on the basis of the degree of hypotension observed. Thus, the ED50 mmHg (dose decreasing blood pressure by 50 mmHg) was calculated graphically, and the compound scored according to the following scale: […]

[7] = test system: guinea pig ileum; test: Antagonism of the effects of PGF2α on the guinea pig ileum in vitro; type: cell-based; settings: listed as TR 4412
Procedure: as §1, §2

| Compound | Rat Uterus: activity value (ED50) [1] | Guinea Pig Trachea: activity value [2] | Femoral Blood Flow: activity value (ED100 ml/min) [3] | antagonism to the smooth muscle stimulant effects of PGE1 (in words) [4] | Blood Pressure Hypertensive Rat: activity value [5] | Feline Blood Pressure, Heart Rate: activity value (ED50 mmHg) [6] | antagonism to the smooth muscle stimulant effects of PGF2α (in words) [7] |
| --- | --- | --- | --- | --- | --- | --- | --- |
| CCCCC[C@@H](O)/C(=C/[C@H]1[C@H](O)CC(=O)[C@@H]1C/C=C\CCCC(=O)OCC)c1ccccc1 [Example 7A, Ethyl 14-Phenyl-11α,15R-dihydroxy-9-oxoprosta-5Z,13E-dien-1-oate] | 0 (>10) | 1 | – | – | – | – | – |
| CCCCC[C@H](O)/C(=C/[C@H]1[C@H](O)CC(=O)[C@@H]1CCCCCCC(=O)OC)c1ccccc1 [Example 1, Methyl 14-Phenyl-11α,15S-dihydroxy-9-oxoprost-13E-en-1-oate] | 0 (>10) | – | 0 (>10.0) | exhibited antagonism to the smooth muscle stimulant effects of PGE1 and PGF2α; also recorded: demonstrated a specificity of antagonism to the smooth muscle stimulant effects of PGE1 and PGF2α | 0 | 0 (>10.0) | exhibited antagonism to the smooth muscle stimulant effects of PGE1 and PGF2α; also recorded: demonstrated a specificity of antagonism to the smooth muscle stimulant effects of PGE1 and PGF2α |
